Experimental findings from the supplement of paper PMC10307832 are described below.

Assay in all cases: relative viability (nuclei count vs DMSO), 5 days (fraction); higher = more cells survive
Compound in the assay “AZD6482 + Linsitinib”: Cc1cc([C@@H](C)Nc2ccccc2C(=O)O)c2nc(N3CCOCC3)cc(=O)n2c1 [AZD6482] + C[C@]1(O)C[C@@H](c2nc(-c3ccc4ccc(-c5ccccc5)nc4c3)c3c(N)nccn32)C1 [Linsitinib] (partner 1 µM)
The gist of the method:
(§1)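 Lung cancer cell lines, seeded in 1536-well plates, were treated the following day by pin tool with a single drug or with five library-drug doses (not always all listed) in √10 steps on top of a fixed anchor-drug dose. Cells were fixed and nuclei stained in one step after 5 days, and nuclei were counted. Relative viability is the nuclei count for treated wells divided by that for vehicle wells, reported as medians of duplicate plates.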

Compound in assay [1]: COc1cc2nc(N3CCCN(C)CC3)nc(NC3CCN(Cc4ccccc4)CC3)c2cc1OC + CCNC(=O)c1noc(-c2cc(C(C)C)c(O)cc2O)c1-c1ccc(CN2CCOCC2)cc1 [Luminespib] (partner 0.01 µM)
The gist of the method:
as §1

Compound in assay [2]: COc1cc2nc(N3CCCN(C)CC3)nc(NC3CCN(Cc4ccccc4)CC3)c2cc1OC + O=C(c1cc(Cc2n[nH]c(=O)c3ccccc23)ccc1F)N1CCN(C(=O)C2CC2)CC1 [Olaparib] (partner 8 µM)
The gist of the method:
as §1

Compound in the assay “AZD6482 + Decitabine”: Cc1cc([C@@H](C)Nc2ccccc2C(=O)O)c2nc(N3CCOCC3)cc(=O)n2c1 [AZD6482] + Nc1ncn([C@H]2C[C@H](O)[C@@H](CO)O2)c(=O)n1 [Decitabine] (partner 2 µM)
The gist of the method: as §1

On to NCI-H1793, for which the relative viability in the assay with AZD6482 + Linsitinib (first compound 0.08 µM) is 0.325; in the assay with AZD6482 + Linsitinib (first compound 0.253 µM), 0.503; with AZD6482 + Linsitinib (first compound 0.8 µM) it was 0.615; in the assay with AZD6482 + Linsitinib (first compound 8 µM) it was 0.46; in assay [1] (first compound 0.2 µM), 0.18; in assay [1] (first compound 0.6325 µM), 0.193. Further, the relative viability in assay [1] (first compound 2 µM) was determined as 0.134; in assay [1] (first compound 6.325 µM), 0.154; in assay [2] (first compound 0.2 µM), 0.805; in assay [2] (first compound 0.6325 µM), 0.924; in assay [2] (first compound 2 µM), 1.09; in assay [2] (first compound 6.325 µM) it was 0.995. The relative viability in the assay with AZD6482 + Decitabine (first compound 0.08 µM) was 0.419; with AZD6482 + Decitabine (first compound 0.253 µM) it was 0.429; in the assay with AZD6482 + Decitabine (first compound 0.8 µM), 0.313; in the assay with AZD6482 + Decitabine (first compound 2.53 µM), 0.297; in the assay with AZD6482 + Decitabine (first compound 8 µM) it was 0.271.
For the cell line NCI-H1915, the relative viability in the assay with AZD6482 + Linsitinib (first compound 0.08 µM) was found to be 0.982; in the assay with AZD6482 + Linsitinib (first compound 0.253 µM), 1.1; with AZD6482 + Linsitinib (first compound 0.8 µM), 1.09; in the assay with AZD6482 + Linsitinib (first compound 2.53 µM) it was 1.03; in the assay with AZD6482 + Linsitinib (first compound 8 µM) it was 1.1; in assay [1] (first compound 0.2 µM), 0.762. Also, the relative viability in assay [1] (first compound 0.6325 µM) is 0.731; in assay [1] (first compound 2 µM) it was 0.794; in assay [1] (first compound 6.325 µM), 0.893; in assay [2] (first compound 0.2 µM), 0.243; in assay [2] (first compound 0.6325 µM), 0.267; in assay [2] (first compound 2 µM), 0.272. For the same cell line, the relative viability turned out to be 0.251 in assay [2] (first compound 6.325 µM); 0.278 with AZD6482 + Decitabine (first compound 0.08 µM); 0.255 in the assay with AZD6482 + Decitabine (first compound 0.253 µM); 0.263 with AZD6482 + Decitabine (first compound 0.8 µM); 0.247 with AZD6482 + Decitabine (first compound 2.53 µM); 0.23 with AZD6482 + Decitabine (first compound 8 µM).
On to NCI-H1944, for which the relative viability is 0.929 with AZD6482 + Linsitinib (first compound 0.08 µM); 0.834 in the assay with AZD6482 + Linsitinib (first compound 0.253 µM); 0.922 with AZD6482 + Linsitinib (first compound 0.8 µM); 0.688 with AZD6482 + Linsitinib (first compound 2.53 µM); 0.622 with AZD6482 + Linsitinib (first compound 8 µM); 0.829 in assay [1] (first compound 0.2 µM). Also, the relative viability in assay [1] (first compound 0.6325 µM) was 0.668; in assay [1] (first compound 2 µM), 0.863; in assay [1] (first compound 6.325 µM), 0.661; in assay [2] (first compound 0.2 µM) it was 0.416; in assay [2] (first compound 0.6325 µM), 0.436; in assay [2] (first compound 2 µM), 0.397. Moreover, the relative viability stood at 0.396 in assay [2] (first compound 6.325 µM); 0.446 with AZD6482 + Decitabine (first compound 0.08 µM); 0.37 with AZD6482 + Decitabine (first compound 0.253 µM); 0.521 in the assay with AZD6482 + Decitabine (first compound 0.8 µM); 0.446 with AZD6482 + Decitabine (first compound 2.53 µM); 0.435 with AZD6482 + Decitabine (first compound 8 µM).
Turning to NCI-H1975, the relative viability was determined as 0.748 with AZD6482 + Linsitinib (first compound 0.08 µM); 0.938 with AZD6482 + Linsitinib (first compound 0.253 µM); 0.874 in the assay with AZD6482 + Linsitinib (first compound 0.8 µM); 0.739 with AZD6482 + Linsitinib (first compound 2.53 µM); 0.592 with AZD6482 + Linsitinib (first compound 8 µM); 0.159 in assay [1] (first compound 0.2 µM). The relative viability was 0.212 in assay [1] (first compound 0.6325 µM); 0.21 in assay [1] (first compound 2 µM); 0.264 in assay [1] (first compound 6.325 µM); 0.761 in assay [2] (first compound 0.2 µM); 0.755 in assay [2] (first compound 0.6325 µM); 0.915 in assay [2] (first compound 2 µM). The relative viability in assay [2] (first compound 6.325 µM) was 0.823; in the assay with AZD6482 + Decitabine (first compound 0.08 µM), 0.351; in the assay with AZD6482 + Decitabine (first compound 0.253 µM), 0.392; with AZD6482 + Decitabine (first compound 0.8 µM), 0.385; with AZD6482 + Decitabine (first compound 2.53 µM), 0.354; with AZD6482 + Decitabine (first compound 8 µM) it was 0.345.
As for NCI-H1993, the relative viability is 0.759 in the assay with AZD6482 + Linsitinib (first compound 0.08 µM); 0.775 with AZD6482 + Linsitinib (first compound 0.253 µM); 0.654 with AZD6482 + Linsitinib (first compound 8 µM); 0.818 in assay [1] (first compound 0.2 µM); 0.719 in assay [1] (first compound 0.6325 µM); 0.923 in assay [1] (first compound 2 µM). For the same cell line, the relative viability was 0.867 in assay [1] (first compound 6.325 µM); 1.03 in assay [2] (first compound 0.2 µM); 1.05 in assay [2] (first compound 0.6325 µM); 1.14 in assay [2] (first compound 2 µM); 1.2 in assay [2] (first compound 6.325 µM); 0.526 with AZD6482 + Decitabine (first compound 0.08 µM). In addition, the relative viability with AZD6482 + Decitabine (first compound 0.253 µM) amounted to 0.481; with AZD6482 + Decitabine (first compound 0.8 µM), 0.598; with AZD6482 + Decitabine (first compound 2.53 µM), 0.436; with AZD6482 + Decitabine (first compound 8 µM) it was 0.458.
